Columns and labels:
Assay type in all cases: cell-based
HL-60 = test: MTT cell proliferation assay, HL-60; settings: Homo sapiens; HL-60 cell line (acute promyelocytic leukemia)
Method: (§1) The antiviral and antitumor activities of the compounds of the invention were evaluated by a cellular proliferation assay. The MTT [3-(4,5-dimethylthiazol-2-yl)-2,5-diphenyltetrazolium bromide] assay, first described by Mosmann (Mosmann T., “Rapid colorimetric assay for cellular growth and survival: application to proliferation and cytotoxicity assays,” J. Immunol. Methods 1983 Dec. 16; 65(1-2):55-63, and incorporated by reference in its entirety) is based on the ability of a mitochondrial dehydrogenase enzyme from viable cells to cleave the tetrazolium rings of the pale yellow MTT. The cleavage reaction form a dark blue formazan crystals which is largely impermeable to cell membranes and accumulation within healthy cells. Solubilisation of the cells by the addition of a detergent liberates and solubilizes the crystals. The number of surviving cells is directly proportional to the level of the formazan product created. The color can then be quantified using a simple colorimetric assay. The results can be read on a multiwell scanning spectrophotometer (ELISA reader).
(§2) In Tables 1 and 2, IC50 values are presented for various cell lines in micromolar units (μm), “Gemci” is Gemcitabine, and “5-FU” is 5-fluorouracil.

MCF7 = test: MTT cell proliferation assay, MCF7; settings: Homo sapiens; MCF7 cell line (mammary gland; breast)
Method: as §1, §2

1A6 = test: MTT cell proliferation assay, 1A6; settings: 1A6 cell line (urinary bladder)
Method: as §1, §2

HCT 116 = test: MTT cell proliferation assay, HCT 116; settings: Homo sapiens; HCT 116 cell line (colon)
Method: as §1, §2

NCI H2052 = test: MTT cell proliferation assay, NCI H2052; settings: Homo sapiens; NCI H2052 cell line (tumor stage 4 derived from pleural effusion)
Method: as §1, §2

DLD-1 = test: MTT cell proliferation assay, DLD-1; settings: Homo sapiens; DLD-1 cell line (colon)
Method: as §1, §2

786-O = test: MTT cell proliferation assay, 786-O; settings: Homo sapiens, 786-0; 786-O cell line (kidney)
Method: as §1, §2

NCI H1395 = test: MTT cell proliferation assay, NCI H1395; settings: Homo sapiens, NCI-H1395, NCI H1395 cell line (lung)
Method: as §1, §2

PFSK-1 = test: MTT cell proliferation assay, PFSK-1; settings: Homo sapiens; PFSK-1 cell line (brain)
Method: as §1, §2

Colo 829 = test: MTT cell proliferation assay, Colo 829; settings: Homo sapiens; Colo 829 cell line (skin)
Method: as §1, §2

BxPC-3 = test: MTT cell proliferation assay, BxPC-3; settings: Homo sapiens; BxPC-3 cell line (pancreas)
Method: as §1, §2

ZR-75-1 = test: MTT cell proliferation assay, ZR-75-1; settings: Homo sapiens; ZR-75-1 cell line (mammary gland; breast)
Method: as §1, §2

OVCAR3 = test: MTT cell proliferation assay, OVCAR3; settings: Homo sapiens, OVCAR-3; OVCAR3 cell line (ovary)
Method: as §1, §2

HCC1143 = test: MTT cell proliferation assay, HCC1143; settings: Homo sapiens; HCC1143 cell line (mammary gland; breast)
Method: as §1, §2

22Rv1 = test: MTT cell proliferation assay, 22Rv1; settings: Homo sapiens; 22Rv1 cell line (prostate)
Method: as §1, §2

MOLT-4 = test: MTT cell proliferation assay, MOLT-4; settings: Homo sapiens, MOLT-4, MOLT-4 cell line (acute lymphoblastic leukemia)
Method: as §1, §2

Structure (SMILES) | IC50 (HL-60) [µM] | IC50 (MCF7) [µM] | IC50 (1A6) [µM] | IC50 (HCT 116) [µM] | IC50 (NCI H2052) [µM] | IC50 (DLD-1) [µM] | IC50 (786-O) [µM] | IC50 (NCI H1395) [µM] | IC50 (PFSK-1) [µM] | IC50 (Colo 829) [µM] | IC50 (BxPC-3) [µM] | IC50 (ZR-75-1) [µM] | IC50 (OVCAR3) [µM] | IC50 (HCC1143) [µM] | IC50 (22Rv1) [µM] | IC50 (MOLT-4) [µM]
C[C@]1(CO)C(O)[C@H](n2ccc(N)nc2=O)O[C@@H]1CO (stereo partly shown) [compound 1056] | > 500 | > 500 | > 500 | > 500 | > 500 | > 500 | > 500 | 440 | > 500 | > 500 | > 500 | > 500 | > 500 | > 500 |  | 
C[C@@]1(CO)[C@@H](CO)O[C@@H](n2ccc(N)nc2=O)[C@@H]1O [LCB-1095, 4-amino-1-((2R,3R,4S,5S)-3-hydroxy-4,5-bis(hydroxymethyl)-4-methyltetrahydrofuran-2-yl)pyrimidin-2(1H)-one] | > 500 | 430 | > 500 | > 500 | > 500 | > 500 | > 500 | > 500 | > 500 | 460 | > 500 | > 500 | > 500 | > 500 | > 500 | > 500
CC1(CO)C(O)C(n2cnc3c(N)nc(Cl)nc32)O[C@@H]1CO (stereo in doubt) [LCB-1091, ((2S,3R,4R,5R)-5-(6-amino-2-chloro-9H-purin-9-yl)-4-hydroxy-3-methyltetrahydrofuran-2,3-diyl)dimethanol] | > 500 | > 500 | > 500 | > 500 | > 500 | > 500 | > 500 | > 500 | > 500 | > 500 | > 500 | > 500 | > 500 | > 500 | > 500 | > 500
CC12C(=O)OC[C@H]1O[C@@H](n1ccc(N)nc1=O)C2O (mixture of isomers) [LCB-1079, 4-amino-1-((2R,3R,3αR,6αS)-3-hydroxy-3α-methyl-4-oxohexahydrofuro[3,4-β]furan-2-yl)pyrimidin-2(1H)-one] | 250 | 280 | 350 | 410 | 310 | 440 | 460 | > 500 | 130 |  | 160 | 380 | 280 | 480 |  | 260
O=c1[nH]cc(F)c(=O)[nH]1 [5-FU, 5-fluorouracil, reference compound] | 25 | 40 | 300 | 25 | > 500 | 470 | 110 | > 500 | 460 | 170 | 220 | > 500 | 35 | 340 | 50 | 20
C[C@]1(C(N)=O)[C@H](O)[C@@H](n2ccc(N)nc2=O)O[C@@H]1CO [LCB-1087, (2S,3S,4S,5S)-5-(4-amino-2-oxopyrimidin-1(2H)-yl)-4-hydroxy-2-(hydroxymethyl)-3-methyltetrahydrofuran-3-carboxamide] | > 500 | > 500 | > 500 | > 500 |  | > 500 | > 500 | > 500 | > 500 | > 500 | > 500 | > 500 | > 500 | > 500 | > 500 | > 500
C[C@@]1(CO)[C@@H](CO)O[C@@H](n2cc(F)c(N)nc2=O)[C@@H]1O [LCB-1096, 4-amino-5-fluoro-1-((2R,3R,4S,5S)-3-hydroxy-4,5-bis(hydroxymethyl)-4-methyltetrahydrofuran-2-yl)pyrimidin-2(1H)-one] | > 500 | > 500 | > 500 | > 500 | > 500 | > 500 | > 500 | > 500 | > 500 | > 500 | > 500 | > 500 | > 500 | > 500 | > 500 | > 500
CCOC(=O)C1(C)[C@@H](CO)O[C@H](n2cnc3c(NN)nc(NN)nc32)[C@@H]1O (stereo partly shown) [LCB-1086] | > 100 | > 100 | > 100 | > 100 |  | > 100 | > 100 | > 100 | 98 | > 100 | 90 | > 100 | > 100 | > 100 | > 100 | > 100
Nc1ccn([C@@H]2O[C@H](CO)[C@@H](O)C2(F)F)c(=O)n1 [Gemci., Gemcitabine, reference compound] | < 0.5 | > 500 | 5 | < 0.5 | > 500 | > 500 | > 500 | < 0.5 | > 500 | < 0.5 | < 0.5 | > 500 | 5 | 400 | > 500 | < 0.5
CC12C(=O)OC[C@H]1O[C@@H](n1cc(F)c(N)nc1=O)C2O (mixture of isomers) [LCB-1080, 4-amino-5-fluoro-1-((2R,3R,3αR,6αS)-3-hydroxy-3α-methyl-4-oxohexahydrofuro[3,4-β]furan-2-yl)pyrimidin-2(1H)-one] | > 500 | > 500 | > 500 |  | > 500 | > 500 | > 500 | > 500 | > 500 | > 500 |  | > 500 |  | > 500 |  | > 500
CC1(CO)C(O)[C@H](n2cnc3c(=O)nc(N)[nH]c(=O)c32)O[C@@H]1CO (stereo in doubt) [LCB-1097, 6-amino-1-((2R,3R,4S,5S)-3-hydroxy-4,5-bis(hydroxymethyl)-4-methyltetrahydrofuran-2-yl)imidazo[4,5-e][1,3]diazepine-4,8(1H,5H)-dione] | > 500 | > 500 | > 500 | > 500 | > 500 | > 500 | > 500 | > 500 | > 500 | > 500 | > 500 | 210 | > 500 | > 500 | > 500 | > 500
CC1(CO)C(O)C(n2cc(F)c(N)nc2=O)O[C@@H]1CO (stereo partly drawn) [LCB-1082, 4-amino-5-fluoro-1-((2S,3S,4S,5S)-3-hydroxy-4,5-bis(hydroxymethyl)-4-methyltetrahydrofuran-2-yl)pyrimidin-2(1H)-one; 4-amino-5-fluoro-1-((2R,3R,4S,5S)-3-hydroxy-4,5-bis(hydroxymethyl)-4-methyltetrahydrofuran-2-yl)pyrimidin-2(1H)-one] | > 500 | > 500 | > 500 |  | > 500 | > 500 | > 500 | > 500 | > 500 | > 500 |  | > 500 |  | > 500 |  | > 500
